Laboratory results taken from patent US20040248171A1, “Cancer monitoring by aberrant promotor methylation of the transcription factor genes PAX5 alpha PAX5 beta, novel loop helix loop protein, novel gene 2, and beta 3 genes” (Lovelace Respiratory Research Institute, priority 2001, published 2004).

Key:
Format in all cases: cell-based, human
[1] = system: β-actin gene expression; assay: RT-PCR analysis for expression of the housekeeping gene β-actin after DAC treatment; settings: MCF7, MDA-MB 231, T47D, Calu6 cell lines, 1 μM DAC, 72 h
Description: (§1) Reverse transcription-PCR (RT-PCR) was conducted on cDNA from three breast cancer cell lines (MCF7, MDA-MB 231, and T47D) and one lung cancer cell line (Calu6) to determine the relationship between methylation of the PAX5 α and β genes and transcription. […] Reference is made to FIG. 3A, showing an MSP analysis of breast and lung cancer cell lines. Bisulfite-modified DNA was amplified with stage-2 primers specific for methylated alleles. […] Expression of the PAX5 α and β genes was restored in non-expressing cell lines following DAC treatment. Expression of the β-actin gene was determined as a control for RNA integrity.
(§2) 5-Aza-2′-deoxycytidine Treatment and RT-PCR. Re-expression studies were performed using three breast cancer cell lines (MCF7, MDA-MB-23 1, and T47D) and one lung cancer cell line (Calu6). […] The expression of the PAX5 α and β transcripts were determined by reverse transcription (RT)-PCR using the exon 1α forward primer (5′-[…]-3′) and the exon 1β forward primer (5′-[…]-3′) with an exon 2 reverse primer (5′-[…]-3′). β-actin was also amplified as a control for RNA integrity.
(§3) PCR amplification was performed at 94° C. for 10 min; then 35 cycles of 94° C. for 30 s, 64° C. for 30 s, and 72° C. for 30 s; and a 5-min final extension at 72° C. PCR products were analyzed on a 3% agarose gel containing ethidium bromide and visualized under UV illumination.

[2] = system: PAX5 α gene expression; assay: RT-PCR analysis for expression of the PAX5 α gene after DAC treatment; settings: for PAX5 α transcript expression: 1 μM DAC, 72 h
Description: as §1
5-Aza-2′-deoxycytidine Treatment and RT-PCR. Re-expression studies were performed using three breast cancer cell lines (MCF7, MDA-MB-23 1, and T47D) and one lung cancer cell line (Calu6). Cell lines were treated for 3 days in culture media with 1 μM DAC (Sigma Chemical Co.). Total RNA was prepared using Trizol (Life Technologies, Inc.), and 3 μg aliquots were reverse-transcribed using the Superscript kit (Life Technologies, Inc.). The expression of the PAX5 α and β transcripts were determined by reverse transcription (RT)-PCR using the exon 1α forward primer (5′-[…]-3′) and the exon 1β forward primer (5′-[…]-3′) with an exon 2 reverse primer (5′-[…]-3′). β-actin was also amplified as a control for RNA integrity.
as §3

[3] = system: PAX5 β gene expression; assay: RT-PCR analysis for expression of the PAX5 β gene after DAC treatment
Description: as §1, §2, §3

[4] = non-expressing breast and lung cancer cell lines, 1 μM DAC for 72 h (FIG. 3B)

With `Nc1ncn([C@H]2C[C@H](O)[C@@H](CO)O2)c(=O)n1` [DAC, 5-Aza-2′-deoxycytidine] the “expression of the housekeeping gene β-actin” value [1] was “did not affect”, the “PAX5 α transcript expression” value ([2]; Calu6 lung cancer cell line) was “increased expression” and the “PAX5 α transcript expression” value ([2]; MDA-MB231 breast cancer cell line) was “restored expression”. The “PAX5 α transcript expression” value ([2]; T47D breast cancer cell line) was “restored expression”, the “Expression of the PAX5 α gene” value [2, 4] was “restored” and the “Expression of the PAX5 β gene” value [3, 4] was “restored”. The “PAX5 β transcript expression” value ([3]; the other three cell lines (MCF7, MDA-MB 231, Calu6), 1 μM DAC, 72 h) was “restored expression”.
